We go through two molecules from paper PMC10895678 (Journal of Medicinal Chemistry, 2024).

Several values for one entry are separate records, joined by “and”; a condition that tells them apart may be missing. Equal entries are not always repeated. Where two headings read alike, the source gives them in different places.

One data set concerns BCG pVV16-mmpL3. It is filed as cell-based, Mycobacterium bovis BCG.
Another data set has as its system M. tuberculosis H37Rv. In words: Mycobacterial time kill experiments (total viable counts). It is filed as cell-based, Mycobacterium tuberculosis. The settings on record: 96 μM, after 6 days of exposure.
For a further data set, the system named is M. bovis BCG. Format: cell-based, Mycobacterium bovis BCG.
Data set [1] in a line: Mouse PK, multiple oral dosing of single compounds. The settings on record: for half-life / AUC(0-inf) / Cmax / Tmax: 30 mg/kg. It is filed as in vivo, KM mice. The source says:
Methods for combined single dosing (BGAz001–005) and dosing of single compounds multiple times (BGAz004 and BGAz005) are described in detail in the Supporting Information (PK Data).
Report on PK results of BGAz-004 by multiple oral dosing
7 Materials and instrument combined dosing
An MS2 Turnover type oscillator was purchased from IKA Work’s Guangzhou (China), and a 5415R ChromatographicanalyseswereconductedusinganAgilent1290InfinityIIhighperformanceliquidchromatography andAgilentTechnologies6470TripleQuadLC/MS.Propranolol(≥90%inpurity,internalstandard,IS)waspurchased fromtheSigmaChemicalCo.(China).Formicacid(HPLCgrade)andmethanol(HPLCgrade)werepurchasedfrom DIKMACo.(China).Allchemicalsandsolventswereanalyticalgrade.WaterwaspurifiedusingaMillipore(AK,USA) laboratoryultra-purewatersystem(0.2μmfilter).
KMmice,weighing25–35g(BeijingVitalRiverLaboratoryAnimalTechnologyCo.,Ltd.,China)wereutilisedforthe studies.The protocols were approved by the Animal Care and Use Committee, GIBH. Animals were maintained on standard animal chow and waterad libitum, in a climate-controlled room (23±1 °C 30–70% relative humidity, a minimumof tenexchangesof roomairperhouranda12hlight/darkcycle)foroneweekpriortoexperiments.
9 Pharmacokinetic studies
Compound BGAz-004 were dissolved in the solution containing DMSO (2%), ethanol (4%), Cremophor EL (4%) and ddH2O (90%).The mice were given solution with 30 mg/kg bygastric gavagefor 3 days.Whole blood samples (100μL)wereobtainedfromtheorbitalvenousplexusatthefollowingtimepointsafterthethirddaydosing:5,15,30 min and 1, 3, 5, 8, 24 hour. Whole blood samples were collected in heparinised tubes. The plasma fraction was immediately separated by centrifugation. The mice were humanely euthanasia by carbon dioxide 24 hours after […]
10 Plasma sample analysis
10.1 Standard curve sample preparation
ThecompoundsweredissolvedinDMSO(2mg/mL)anddilutedwithtoseriesconcentration(methanol:H 2O,1:1,10 μL) and blank plasma (50 μL) were added to 1.5 mL tubes and vortexed for 3 min, then acetonitrile-containing internalstandard(150μL)wasaddedandvortexedforafurther5min,andsubsequentlyspuninacentrifugeat13000 […]
10.2 Plasma and preparation
Plasmasampleswerepreparedusingaproteinprecipitationmethod.Solution(10μL,methanolH 2O,1:1)andplasma samples(50μL)wereaddedto1.5mLtubesandvortexfor3min,thenacetonitrile-containinginternalstandard(150 μL)wasaddedandvortexfor5min,andsubsequentlyspuninacentrifugeat13000× gfor40minat4°C.
Aftercentrifugation,supernatant(100μL)wastransferto96wellplatesandanalysedbyLC-MS/MSusinganAgilent 1290InfinityIIHPLCandanAgilentTechnologies6470TripleQuadLC/MS.
Report on PK results of BGAz-005 by multiple oral dosing
13 Materials and instrument combined dosing […]
fromtheSigmaChemicalCo.(China).Formicacid(HPLCgrade)andmethanol(HPLCgrade)werepurchased from […]
15 Pharmacokinetic studies
Compound BGAz-005 were dissolved in the solution containing DMSO (2%), ethanol (4%), Cremophor EL (4%) […]
16 Plasma sample analysis
16.1 Standard curve sample preparation
16.2 Plasma and preparation

The test system of another data set is BCG. Format: cell-based, Mycobacterium bovis BCG.
The mark [2] stands for this setting: KM, mouse, plasma, multiple PO 30 mg/kg, times 3, mean of animals.
[3] abbreviates: multiple PO 30 mg/kg, times 3, mean of animals.

Regarding `FC(F)(F)Oc1ccc(C2CC(CN3CCCC3)N2Cc2ccccc2OC(F)(F)F)cc1` (centres unmarked) [BGAz-002], the BCG pVV16-mmpL3 MIC in the data set with BCG pVV16-mmpL3 stood at 25 µM.
The Cmax is the highest concentration seen after dosing. By Tmax is commonly meant the time at which the peak concentration occurs. The AUC is the area under the concentration-time curve, a measure of exposure. Low readings indicate less exposure, high ones more exposure. One may read the AUC(0-t) as exposure summed from dosing to a finite time, without extrapolation to infinity. Low values mean less exposure, high ones more exposure. For `CNCC1CC(c2ccc(OC(F)(F)F)cc2)N1Cc1ccccc1OC(F)(F)F` (centres unmarked) [BGAz-005], in the data set with M. tuberculosis H37Rv, the “reduction of total viable count” value is 3.28 ± 1.00 log10 CFU mL^–1. Also, in the data set with M. bovis BCG, the “log2FoldChange, gene BCG_0001” value is listed as -0.2829; the “log2FoldChange, gene BCG_0002” value is given as -0.6164; the “log2FoldChange, gene BCG_0003” value is given as -0.7815; the “log2FoldChange, gene BCG_0004” value is on record as -0.2846. In addition, the “log2FoldChange, gene BCG_0005” value in the data set with M. bovis BCG was 0.5809. In the data set with M. bovis BCG (8 h exposure, 1 × MIC), this molecule had an induced genes of 160 and a repressed genes of 126. The half-life in data set [1] (KM, mouse, plasma, oral, mice, read-out: blood plasma half-life) is more than 72 h. In data set [1] (KM, mouse, plasma, po, multiple PO 30 mg/kg, times 3, mean of animals, read-out: AUC(0-∞)), the AUC(0-inf) stood at 82200 ng·h/mL. Besides, the peak concentration (Cmax) in data set [1] (KM, mouse, plasma, po, multiple PO 30 mg/kg, times 3, mean of animals, read-out: Cmax) worked out at 1710 ng/mL. For the same molecule, the Tmax in data set [1] (KM, mouse, plasma, po, multiple PO 30 mg/kg, times 3, mean of animals, read-out: Tmax) was 0.875 h. Further, the half-life in data set [1] (KM, mouse, plasma, po, multiple PO 30 mg/kg, times 3, mean of animals, read-out: t1/2z (converted)) was 80.4 h. The AUC(0-inf) in data set [1] (KM, mouse, plasma, po, multiple PO, times 3, 30 mg/kg, summary table, read-out: AUC(0-∞)) is 82200 ng·h/mL. Also, the Cmax in data set [1] (KM, mouse, plasma, po, multiple PO, times 3, 30 mg/kg, summary table, read-out: Cmax) amounted to 1710 ng/mL. Further, the half-life in data set [1] (KM, mouse, plasma, po, multiple PO, times 3, 30 mg/kg, summary table, read-out: T1/2 (converted)) was 80.4 h. In addition, the time to peak (Tmax) in data set [1] (KM, mouse, plasma, po, multiple PO, times 3, 30 mg/kg, summary table, read-out: Tmax) turned out to be 0.875 h. The AUC(0-inf) in data set [1] (KM, mouse, plasma, po, multiple daily dosing 3 × 30 mg/kg PO, read-out: AUC0-inf) was determined as 82200 ng·h/mL. Also, in data set [1] (KM, mouse, plasma, po, multiple daily dosing 3 × 30 mg/kg PO, read-out: Cmax (Mouse, P.O.)), the Cmax was 1710 ng/mL. Further, the half-life in data set [1] (KM, mouse, plasma, po, multiple daily dosing 3 × 30 mg/kg PO, read-out: T1/2 (Mouse, P.O.) (converted)) is 80.4 h. Moreover, the time to peak (Tmax) in data set [1] (KM, mouse, plasma, po, multiple daily dosing 3 × 30 mg/kg PO, read-out: Tmax (Mouse, P.O.)) stood at 0.87 h. The concentration at 0.083 h in data set [1] (KM, mouse, plasma, multiple PO 30 mg/kg, times 3, 0.083 h) is 1.97 µM and 858 ng/mL. Also, in data set [1] (KM, mouse, plasma, multiple PO 30 mg/kg, times 3, 0.25 h), the concentration at 0.25 h is 2.69 µM and 1170 ng/mL. For the same molecule, in data set [1] (KM, mouse, plasma, multiple PO 30 mg/kg, times 3, 0.5 h), the concentration at 0.5 h was 3.53 µM and 1540 ng/mL. Also, the concentration at 1 h in data set [1] (KM, mouse, plasma, multiple PO 30 mg/kg, times 3, 1 h) is 3.75 µM and 1630 ng/mL. The concentration at 3 h in data set [1] (KM, mouse, plasma, multiple PO 30 mg/kg, times 3, 3 h) is 1.96 µM and 855 ng/mL. Also, the concentration at 5 h in data set [1] (KM, mouse, plasma, multiple PO 30 mg/kg, times 3, 5 h) was 714 ng/mL and 1.64 µM. Moreover, the concentration at 8 h in data set [1] (KM, mouse, plasma, multiple PO 30 mg/kg, times 3, 8 h) is 608 ng/mL and 1.4 µM. For the same molecule, in data set [1] (KM, mouse, plasma, multiple PO 30 mg/kg, times 3, 24 h), the concentration at 24 h is 570 ng/mL and 1.31 µM. In data set [1] (setting [2]), the AUC amounted to 16800 ng·h/mL and the area under the curve AUC(0-t) was determined as 16800 ng·h/mL. In addition, in data set [1] (KM, mouse, plasma, multiple PO 30 mg/kg, times 3, mean of animals, read-out: CLz/F (converted)), the CL/F was 13.1 mL/min/kg. The MRT last in data set [1] (KM, mouse, plasma, multiple PO 30 mg/kg, times 3, mean of animals, read-out: MRT(0-t)) was found to be 10.3 h. For the same molecule, the MRT inf in data set [1] (KM, mouse, plasma, multiple PO 30 mg/kg, times 3, mean of animals, read-out: MRT(0-∞)) is 116 h. Besides, the Vd/F in data set [1] (KM, mouse, plasma, multiple PO 30 mg/kg, times 3, mean of animals, read-out: Vz/F) was 34.4 L/kg. In addition, in data set [1] (KM, mouse, plasma, multiple PO 30 mg/kg, times 3, mean of animals, read-out: λz (converted)), the k el was 1.42e-05 s⁻¹. In data set [1] (setting [3]), the “AUMC(0-t)” value is on record as 172065.476 h*h*μg/L, the “AUMC(0-∞)” value is 21124940.36 h*h*μg/L, the C_last worked out at 394.2 ng/mL and the Cav was 699.901 ng/mL. Further, in data set [1] (setting [3]), the DF turned out to be 2.398, the “R_AUC(t/∞)” value was found to be 45.975%, the “VRT(0-t)” value was determined as 76.208 h^2 and the “VRT(0-∞)” value came out at 32368.115 h^2. For the same molecule, the “TMM and TDM in cell envelope lipids” value in the data set on BCG (0.5 × MIC) is reported as “significant reduction”. Further, the “TMM and TDM in cell envelope lipids” value with BCG (concentrations beyond the MIC) is listed as “complete loss”.
